The record followed here is ChEMBL document CHEMBL5291721, “A preclinical secondary pharmacology resource illuminates target-adverse drug reaction associations of marketed drugs” (Nat Commun, 2023).

Where only a bound is given, the exact number is not on record here.

The term AC50 denotes the concentration at which the activity in the assay is half-maximal.

Test [1] concerns the target cGMP-inhibited 3',5'-cyclic phosphodiesterase 3A (Homo sapiens, UniProt Q14432). It is filed as functional.
The target in test [2] is T1, 5-hydroxytryptamine receptor 1A (Homo sapiens, UniProt P08908).
T1 sequence (P08908 whole entry): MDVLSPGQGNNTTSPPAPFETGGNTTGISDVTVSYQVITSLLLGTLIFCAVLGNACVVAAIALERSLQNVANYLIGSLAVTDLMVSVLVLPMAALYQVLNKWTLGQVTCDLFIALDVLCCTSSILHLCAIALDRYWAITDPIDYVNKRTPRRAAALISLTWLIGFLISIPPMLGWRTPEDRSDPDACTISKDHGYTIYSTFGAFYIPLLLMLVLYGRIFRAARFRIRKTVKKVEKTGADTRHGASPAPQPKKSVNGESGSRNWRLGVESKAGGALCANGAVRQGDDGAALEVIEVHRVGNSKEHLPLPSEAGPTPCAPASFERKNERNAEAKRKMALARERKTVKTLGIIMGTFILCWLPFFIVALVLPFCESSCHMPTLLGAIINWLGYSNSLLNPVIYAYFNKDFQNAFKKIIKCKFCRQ
The test is classed as functional, cell-based.

Another test has as its target T2, Estrogen receptor (Homo sapiens, UniProt P03372).
T2 sequence (P03372 whole entry): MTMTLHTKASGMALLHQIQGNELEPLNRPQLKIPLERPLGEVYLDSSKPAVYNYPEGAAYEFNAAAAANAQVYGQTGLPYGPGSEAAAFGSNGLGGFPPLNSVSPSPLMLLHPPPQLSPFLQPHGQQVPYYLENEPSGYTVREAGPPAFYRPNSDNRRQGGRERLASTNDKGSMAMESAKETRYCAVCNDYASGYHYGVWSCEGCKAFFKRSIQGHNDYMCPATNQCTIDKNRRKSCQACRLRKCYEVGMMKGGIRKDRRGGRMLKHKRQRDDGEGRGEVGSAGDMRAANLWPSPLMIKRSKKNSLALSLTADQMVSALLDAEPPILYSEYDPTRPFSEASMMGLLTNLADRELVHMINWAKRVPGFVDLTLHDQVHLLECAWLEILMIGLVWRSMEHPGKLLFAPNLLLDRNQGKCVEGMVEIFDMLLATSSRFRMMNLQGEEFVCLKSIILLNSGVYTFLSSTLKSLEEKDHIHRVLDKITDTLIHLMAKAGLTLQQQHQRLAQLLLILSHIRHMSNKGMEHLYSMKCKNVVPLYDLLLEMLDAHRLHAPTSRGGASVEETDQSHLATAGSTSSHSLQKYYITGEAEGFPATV

Test [3] has as its target Neuronal acetylcholine receptor subunit alpha-4 (Homo sapiens, UniProt P43681).
The target of a further test is T3, Adenosine receptor A1 (Homo sapiens, UniProt P30542).
T3 sequence (P30542 whole entry): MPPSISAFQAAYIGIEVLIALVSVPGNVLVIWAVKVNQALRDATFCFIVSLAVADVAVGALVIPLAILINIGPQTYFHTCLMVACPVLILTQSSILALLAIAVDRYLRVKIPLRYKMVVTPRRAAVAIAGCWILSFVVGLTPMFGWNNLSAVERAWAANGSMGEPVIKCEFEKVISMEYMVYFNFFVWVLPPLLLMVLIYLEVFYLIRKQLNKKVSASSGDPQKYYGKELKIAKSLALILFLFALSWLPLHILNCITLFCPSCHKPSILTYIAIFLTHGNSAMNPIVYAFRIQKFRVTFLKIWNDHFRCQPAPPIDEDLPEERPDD

A further test has as its target Vasopressin V2 receptor (Homo sapiens, UniProt P30518).
The target in test [4] is T4, Gastrin/cholecystokinin type B receptor (Homo sapiens, UniProt P32239).
T4 sequence (P32239 whole entry): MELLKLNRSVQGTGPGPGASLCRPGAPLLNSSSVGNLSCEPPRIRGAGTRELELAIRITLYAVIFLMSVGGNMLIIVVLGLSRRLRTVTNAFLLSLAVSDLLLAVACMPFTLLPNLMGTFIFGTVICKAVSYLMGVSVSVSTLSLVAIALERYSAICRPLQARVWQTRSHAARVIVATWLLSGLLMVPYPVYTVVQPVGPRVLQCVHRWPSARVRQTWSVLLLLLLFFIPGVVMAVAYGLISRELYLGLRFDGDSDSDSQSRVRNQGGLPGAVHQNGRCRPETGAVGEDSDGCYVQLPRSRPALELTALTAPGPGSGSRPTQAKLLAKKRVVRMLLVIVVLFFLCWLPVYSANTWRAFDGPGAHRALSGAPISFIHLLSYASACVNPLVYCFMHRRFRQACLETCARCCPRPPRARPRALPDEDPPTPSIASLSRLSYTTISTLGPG

Test [5] concerns the target Beta-1 adrenergic receptor (Homo sapiens, UniProt P08588). It is filed as functional.
Test [6] addresses 3',5'-cyclic-AMP phosphodiesterase 4D (Homo sapiens, UniProt Q08499). The test is classed as functional.
Test [7] concerns the target T5, Muscarinic acetylcholine receptor M2 (Homo sapiens, UniProt P08172).
T5 sequence (P08172 whole entry): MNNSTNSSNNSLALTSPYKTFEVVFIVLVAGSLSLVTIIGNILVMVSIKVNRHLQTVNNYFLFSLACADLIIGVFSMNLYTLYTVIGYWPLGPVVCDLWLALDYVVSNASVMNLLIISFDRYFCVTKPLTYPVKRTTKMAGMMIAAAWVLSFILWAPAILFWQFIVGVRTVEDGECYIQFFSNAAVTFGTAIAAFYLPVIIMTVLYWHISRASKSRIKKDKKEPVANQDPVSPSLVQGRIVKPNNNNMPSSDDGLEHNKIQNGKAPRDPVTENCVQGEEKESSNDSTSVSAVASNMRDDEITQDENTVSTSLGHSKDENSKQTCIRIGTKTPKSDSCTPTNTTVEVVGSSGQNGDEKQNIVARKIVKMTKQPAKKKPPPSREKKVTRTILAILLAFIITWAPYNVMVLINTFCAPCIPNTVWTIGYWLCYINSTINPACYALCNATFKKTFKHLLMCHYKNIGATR
The test is classed as functional, cell-based.

Another test addresses T6, Thromboxane A2 receptor (Homo sapiens, UniProt P21731).
T6 sequence (P21731 whole entry): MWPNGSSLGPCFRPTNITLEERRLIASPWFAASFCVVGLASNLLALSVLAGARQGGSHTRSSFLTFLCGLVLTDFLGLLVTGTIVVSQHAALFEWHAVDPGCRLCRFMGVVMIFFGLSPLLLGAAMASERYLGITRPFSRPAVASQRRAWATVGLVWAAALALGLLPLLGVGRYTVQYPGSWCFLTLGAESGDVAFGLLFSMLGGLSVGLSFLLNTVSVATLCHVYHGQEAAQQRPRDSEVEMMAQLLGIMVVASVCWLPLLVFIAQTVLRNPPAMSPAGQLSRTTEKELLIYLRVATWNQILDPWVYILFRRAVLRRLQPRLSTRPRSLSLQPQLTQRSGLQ
Note: assay procedure not described here.

Sequence of 3',5'-cyclic-AMP phosphodiesterase 4D (Q08499 whole entry): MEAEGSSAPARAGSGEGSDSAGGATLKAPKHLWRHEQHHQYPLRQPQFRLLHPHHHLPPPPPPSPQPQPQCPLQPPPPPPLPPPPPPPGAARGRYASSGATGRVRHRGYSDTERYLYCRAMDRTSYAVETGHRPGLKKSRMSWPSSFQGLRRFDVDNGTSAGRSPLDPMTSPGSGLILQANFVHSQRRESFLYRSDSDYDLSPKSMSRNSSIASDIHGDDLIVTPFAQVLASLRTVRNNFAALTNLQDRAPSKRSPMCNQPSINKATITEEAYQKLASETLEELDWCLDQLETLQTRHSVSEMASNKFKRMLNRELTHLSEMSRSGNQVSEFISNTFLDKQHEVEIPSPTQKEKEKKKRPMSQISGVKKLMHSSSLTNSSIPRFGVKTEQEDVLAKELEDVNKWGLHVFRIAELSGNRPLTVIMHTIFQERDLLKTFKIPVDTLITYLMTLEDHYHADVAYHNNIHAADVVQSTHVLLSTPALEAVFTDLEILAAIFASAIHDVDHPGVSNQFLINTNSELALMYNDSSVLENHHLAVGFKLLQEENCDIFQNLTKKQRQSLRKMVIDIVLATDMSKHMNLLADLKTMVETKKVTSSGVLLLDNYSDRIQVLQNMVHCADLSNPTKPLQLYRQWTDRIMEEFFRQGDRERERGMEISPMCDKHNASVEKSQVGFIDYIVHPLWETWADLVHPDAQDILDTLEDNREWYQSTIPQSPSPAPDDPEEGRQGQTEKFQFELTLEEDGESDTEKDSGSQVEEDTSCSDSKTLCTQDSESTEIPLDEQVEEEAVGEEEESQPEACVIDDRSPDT
Sequence of cGMP-inhibited 3',5'-cyclic phosphodiesterase 3A (Q14432 whole entry): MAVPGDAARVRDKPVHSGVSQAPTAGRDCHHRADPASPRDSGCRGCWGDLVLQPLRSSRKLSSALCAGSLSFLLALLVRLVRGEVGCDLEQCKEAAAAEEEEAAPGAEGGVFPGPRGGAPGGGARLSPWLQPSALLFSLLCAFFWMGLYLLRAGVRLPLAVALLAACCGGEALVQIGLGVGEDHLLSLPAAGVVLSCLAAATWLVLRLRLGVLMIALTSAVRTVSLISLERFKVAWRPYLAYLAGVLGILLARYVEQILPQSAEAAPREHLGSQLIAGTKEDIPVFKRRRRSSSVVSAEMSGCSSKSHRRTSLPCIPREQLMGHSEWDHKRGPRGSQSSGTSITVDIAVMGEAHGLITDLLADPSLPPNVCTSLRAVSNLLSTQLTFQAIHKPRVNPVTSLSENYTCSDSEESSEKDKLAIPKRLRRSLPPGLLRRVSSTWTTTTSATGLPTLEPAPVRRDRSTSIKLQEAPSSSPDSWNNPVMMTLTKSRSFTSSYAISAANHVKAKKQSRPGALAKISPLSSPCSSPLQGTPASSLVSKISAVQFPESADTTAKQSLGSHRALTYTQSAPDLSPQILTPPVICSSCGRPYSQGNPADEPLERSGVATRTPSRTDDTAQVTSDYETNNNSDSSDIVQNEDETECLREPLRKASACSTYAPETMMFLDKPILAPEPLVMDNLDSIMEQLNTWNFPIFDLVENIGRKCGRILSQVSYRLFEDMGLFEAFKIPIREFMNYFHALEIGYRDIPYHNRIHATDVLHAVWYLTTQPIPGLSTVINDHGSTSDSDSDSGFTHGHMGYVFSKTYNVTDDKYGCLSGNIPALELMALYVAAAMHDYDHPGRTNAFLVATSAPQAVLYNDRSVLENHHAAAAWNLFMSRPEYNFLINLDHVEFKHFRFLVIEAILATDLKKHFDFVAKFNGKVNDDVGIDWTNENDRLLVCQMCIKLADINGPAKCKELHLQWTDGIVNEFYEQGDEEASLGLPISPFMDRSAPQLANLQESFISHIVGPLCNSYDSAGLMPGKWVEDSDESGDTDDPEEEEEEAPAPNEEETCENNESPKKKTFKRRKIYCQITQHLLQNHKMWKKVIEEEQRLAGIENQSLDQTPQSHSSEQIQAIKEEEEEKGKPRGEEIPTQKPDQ
Sequence of Neuronal acetylcholine receptor subunit alpha-4 (P43681 whole entry): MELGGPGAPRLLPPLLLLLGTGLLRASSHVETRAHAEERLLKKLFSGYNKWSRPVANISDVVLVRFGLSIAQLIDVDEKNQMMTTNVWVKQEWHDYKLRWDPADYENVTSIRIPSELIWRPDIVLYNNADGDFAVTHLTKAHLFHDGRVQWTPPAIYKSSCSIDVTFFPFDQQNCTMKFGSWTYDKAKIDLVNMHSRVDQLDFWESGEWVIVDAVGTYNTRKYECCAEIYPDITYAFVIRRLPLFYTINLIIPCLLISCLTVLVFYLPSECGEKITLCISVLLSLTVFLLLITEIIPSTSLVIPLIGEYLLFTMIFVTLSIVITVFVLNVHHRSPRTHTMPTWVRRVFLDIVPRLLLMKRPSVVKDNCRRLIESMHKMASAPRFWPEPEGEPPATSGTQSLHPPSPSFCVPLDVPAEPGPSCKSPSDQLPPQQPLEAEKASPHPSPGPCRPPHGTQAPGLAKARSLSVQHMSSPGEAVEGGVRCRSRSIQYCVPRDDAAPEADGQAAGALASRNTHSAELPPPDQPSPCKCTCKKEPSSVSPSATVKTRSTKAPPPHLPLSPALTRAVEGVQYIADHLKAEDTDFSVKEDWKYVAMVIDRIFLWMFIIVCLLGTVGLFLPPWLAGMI
Sequence of Beta-1 adrenergic receptor (P08588 whole entry): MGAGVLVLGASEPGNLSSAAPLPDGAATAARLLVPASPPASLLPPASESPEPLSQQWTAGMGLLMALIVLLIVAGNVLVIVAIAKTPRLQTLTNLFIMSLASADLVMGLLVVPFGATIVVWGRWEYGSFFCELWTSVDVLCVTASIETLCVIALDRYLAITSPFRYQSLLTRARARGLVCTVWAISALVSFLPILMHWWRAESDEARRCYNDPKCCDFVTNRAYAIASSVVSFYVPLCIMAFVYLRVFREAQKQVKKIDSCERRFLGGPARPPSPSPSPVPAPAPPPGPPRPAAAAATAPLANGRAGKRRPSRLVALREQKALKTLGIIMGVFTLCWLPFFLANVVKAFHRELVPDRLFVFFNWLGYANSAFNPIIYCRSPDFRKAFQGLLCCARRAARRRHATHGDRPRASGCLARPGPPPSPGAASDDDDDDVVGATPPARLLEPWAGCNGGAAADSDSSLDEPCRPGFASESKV
Sequence of Vasopressin V2 receptor (P30518 whole entry): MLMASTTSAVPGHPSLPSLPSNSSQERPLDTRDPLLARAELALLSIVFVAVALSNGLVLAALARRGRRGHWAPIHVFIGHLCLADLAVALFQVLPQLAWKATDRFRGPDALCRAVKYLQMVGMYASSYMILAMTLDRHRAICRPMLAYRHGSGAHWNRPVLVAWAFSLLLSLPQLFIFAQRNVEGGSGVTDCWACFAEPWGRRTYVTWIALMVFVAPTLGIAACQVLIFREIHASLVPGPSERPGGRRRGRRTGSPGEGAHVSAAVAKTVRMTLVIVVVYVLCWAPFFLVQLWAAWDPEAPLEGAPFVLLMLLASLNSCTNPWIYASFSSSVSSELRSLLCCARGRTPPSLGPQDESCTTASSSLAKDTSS

Turning to `COC(=O)[C@H]1[C@H]2C[C@@H]3c4[nH]c5ccccc5c4CCN3C[C@H]2C[C@@H](OC(=O)c2cc(OC)c(OC)c(OC)c2)[C@@H]1OC` [DESERPIDINE], the AC50 in test [1] is > 30 µM; in test [2], > 10 µM; at Estrogen receptor, > 30 µM; in test [3], > 30 µM; at Adenosine receptor A1, > 30 µM; at Vasopressin V2 receptor, > 30 µM. The AC50 in test [4] was > 30 µM; in test [5], > 10 µM; in test [6], > 30 µM; in [7], > 10 µM; at Thromboxane A2 receptor it was > 30 µM.

Regarding `CCN(CC)C(C)C(=O)c1ccccc1` (stereo not given) [DIETHYLPROPION], the AC50 in [1] is > 30 µM; in [2] it was > 10 µM; on Estrogen receptor, > 30 µM; in test [3], > 10 µM; on Adenosine receptor A1 it was > 30 µM; at Vasopressin V2 receptor, > 30 µM. Moreover, the AC50 in [4] is > 30 µM; in test [5] it was > 10 µM; in test [6] it was > 30 µM; in test [7] it was > 10 µM; on Thromboxane A2 receptor it was > 30 µM.

In the case of `Cc1ccc(-c2ncc(Cl)cc2-c2ccc(S(C)(=O)=O)cc2)cn1` [ETORICOXIB], the AC50 was > 10 µM in [1]; > 10 µM in test [2]; > 30 µM at Estrogen receptor; > 10 µM in [3]; > 10 µM on Adenosine receptor A1; > 30 µM at Vasopressin V2 receptor. For the same compound, the AC50 in test [4] was > 10 µM; in [5], > 10 µM; in [6] it was 9 µM; in test [7], > 10 µM; on Thromboxane A2 receptor, > 10 µM.

Turning to `CCOC(=O)C1=C(C)NC(C)=C(C(=O)OC)C1c1cccc(Cl)c1Cl` (stereo not given) [FELODIPINE], the AC50 in [1] is > 30 µM; in test [2], > 10 µM; on Estrogen receptor, > 30 µM; in test [3], > 10 µM; on Adenosine receptor A1, > 30 µM; at Vasopressin V2 receptor, > 30 µM. For the same compound, the AC50 in test [4] was > 30 µM; in [5], > 10 µM; in [6], 3.2 µM; in test [7] it was > 10 µM; on Thromboxane A2 receptor, 8.41 µM.

Turning to `CC(=O)OCC(=O)[C@@]1(O)CC[C@H]2[C@@H]3CCC4=CC(=O)CC[C@]4(C)[C@@]3(F)[C@@H](O)C[C@@]21C` [FLUDROCORTISONE ACETATE], the AC50 (in test [1]; in test [2]; at Estrogen receptor; in test [3]; on Adenosine receptor A1; at Vasopressin V2 receptor) was > 30 µM throughout. For the same compound, the AC50 (in test [4]; in [5]; in test [6]; in [7]; on Thromboxane A2 receptor) was > 30 µM each time.

Regarding `Cc1ccc(S(=O)(=O)NC(=O)N[C@H]2[C@H]3CC[C@@](C)([C@H]2O)C3(C)C)cc1` [GLIBORNURIDE], the AC50 (in test [1]; in [2]; on Estrogen receptor; in test [3]; on Adenosine receptor A1; on Vasopressin V2 receptor) was > 30 µM throughout. Also, the AC50 (in test [4]; in [5]; in test [6]; in [7]; on Thromboxane A2 receptor) was > 30 µM in each case.

Regarding `COc1ccc2c3c1O[C@H]1C(=O)CC[C@H]4[C@@H](C2)N(C)CC[C@]314` [HYDROCODONE], the AC50 in test [1] is > 30 µM; in test [2], > 10 µM; on Estrogen receptor it was > 30 µM; in [3] it was > 10 µM; on Adenosine receptor A1 it was > 30 µM; at Vasopressin V2 receptor, > 30 µM. In addition, the AC50 was > 30 µM in [4]; > 10 µM in test [5]; 9.5 µM in test [6]; > 10 µM in [7]; > 30 µM on Thromboxane A2 receptor.

On to `CC1Cc2ccccc2N1NC(=O)c1ccc(Cl)c(S(N)(=O)=O)c1` (stereo not given) [INDAPAMIDE], for which the AC50 in [1] was > 10 µM; in test [2], > 30 µM; at Estrogen receptor, > 30 µM; in [3], > 10 µM; on Adenosine receptor A1, > 30 µM; on Vasopressin V2 receptor, > 30 µM. Also, the AC50 in test [4] is > 30 µM; in test [5], > 10 µM; in test [6], > 10 µM; in [7], > 10 µM; on Thromboxane A2 receptor, > 30 µM.

Take `Nc1cc(N2CCCCC2)nc(N)[n+]1[O-]` [MINOXIDIL]: the AC50 in test [1] was > 30 µM; in test [2], > 30 µM; on Estrogen receptor it was > 30 µM; in test [3] it was > 10 µM; at Adenosine receptor A1 it was > 30 µM; on Vasopressin V2 receptor, > 30 µM. In addition, the AC50 was > 30 µM in [4]; > 30 µM in [5]; > 30 µM in [6]; > 10 µM in test [7]; > 30 µM on Thromboxane A2 receptor.

As to `CC1NCCOC1c1ccccc1` (stereo not given) [PHENMETRAZINE], the AC50 in test [1] is > 30 µM; in test [2], > 10 µM; on Estrogen receptor, > 30 µM; in [3], > 10 µM; on Adenosine receptor A1 it was > 30 µM; at Vasopressin V2 receptor, > 30 µM. Moreover, the AC50 in test [4] is > 30 µM; in [5] it was > 10 µM; in test [6], > 30 µM; in [7] it was > 10 µM; on Thromboxane A2 receptor, > 30 µM.
